Experimental data from BindingDB's records for doi:10.1016/j.bioorg.2015.02.002 (Bezmialem Vakif University, 2015).

What was measured:
[1] = target: Carboxylic ester hydrolase (Equus caballus, UniProt Q9N1N9); test: Anticholinesterase Activity Assays; conditions: pH 8
Method: (§1) The substrates of the reaction were acetylthiocholine iodide and butyrylthiocholine iodide. 5,5'-dithio-bis(2-nitrobenzoic) acid (DTNB) was used for the measurement of the anticholinesterase activity. The solutions of the samples and galantamine in n-propanol were prepared at concentration of 4000 µg/mL. […] 10 µL of DTNB solution was prepared by adding 2.0 mL of pH 7.0 and 4.0 mL of pH 8.0 phosphate buffers to a mixture of 1.0 mL of 16 mg/mL DTNB and 7.5 mg/mL NaHCO3 in pH 7.0 phosphate buffers. The reaction was initiated by the addition of 10 µL (7.1 mM) acetylthiocholine iodide (or 0.79 mM butyrylthiocholine iodide). Propyl alcohol was used as a solvent to controls. The hydrolysis of these substrates was monitored at 412 nm.

Acetylcholinesterase = Acetylcholinesterase (Electrophorus electricus, UniProt O42275); test: Anticholinesterase Activity Assays; conditions: pH 8
Acetylcholinesterase, sequence (O42275 whole entry): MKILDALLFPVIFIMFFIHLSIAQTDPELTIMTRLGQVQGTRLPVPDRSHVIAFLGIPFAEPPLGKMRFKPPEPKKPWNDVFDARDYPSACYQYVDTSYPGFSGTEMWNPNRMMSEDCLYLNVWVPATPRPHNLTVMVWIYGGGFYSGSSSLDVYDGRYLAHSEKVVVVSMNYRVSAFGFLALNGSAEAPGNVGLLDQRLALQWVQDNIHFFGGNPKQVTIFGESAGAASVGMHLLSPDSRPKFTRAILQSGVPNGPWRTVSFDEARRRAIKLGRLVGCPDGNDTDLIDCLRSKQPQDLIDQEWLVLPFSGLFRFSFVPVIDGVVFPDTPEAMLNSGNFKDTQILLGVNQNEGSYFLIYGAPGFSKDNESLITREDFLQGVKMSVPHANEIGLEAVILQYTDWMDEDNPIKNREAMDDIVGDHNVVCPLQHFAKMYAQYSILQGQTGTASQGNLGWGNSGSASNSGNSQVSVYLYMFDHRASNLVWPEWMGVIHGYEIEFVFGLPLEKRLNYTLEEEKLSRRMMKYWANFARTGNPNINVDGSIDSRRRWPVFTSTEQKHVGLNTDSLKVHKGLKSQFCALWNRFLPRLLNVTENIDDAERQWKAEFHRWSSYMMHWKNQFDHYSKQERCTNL
Method: as §1

Carboxylic ester hydrolase, sequence (Q9N1N9 whole entry): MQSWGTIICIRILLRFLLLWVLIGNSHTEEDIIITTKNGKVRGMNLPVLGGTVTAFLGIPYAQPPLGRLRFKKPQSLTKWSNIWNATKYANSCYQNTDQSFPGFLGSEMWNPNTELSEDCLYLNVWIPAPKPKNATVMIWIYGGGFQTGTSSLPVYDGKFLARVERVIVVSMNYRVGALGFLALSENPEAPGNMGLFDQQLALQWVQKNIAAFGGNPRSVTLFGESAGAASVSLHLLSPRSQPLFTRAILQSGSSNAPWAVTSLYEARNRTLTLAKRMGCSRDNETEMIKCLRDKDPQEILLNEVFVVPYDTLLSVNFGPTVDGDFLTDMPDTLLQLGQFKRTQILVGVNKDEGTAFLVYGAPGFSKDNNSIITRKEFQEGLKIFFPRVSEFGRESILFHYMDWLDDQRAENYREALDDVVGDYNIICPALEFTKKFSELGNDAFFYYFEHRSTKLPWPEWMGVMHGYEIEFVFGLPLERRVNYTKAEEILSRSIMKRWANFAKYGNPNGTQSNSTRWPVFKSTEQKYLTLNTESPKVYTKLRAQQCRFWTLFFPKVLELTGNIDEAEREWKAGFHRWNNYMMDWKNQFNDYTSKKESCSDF

Compound	IC50 [1] [µM]	IC50 (Acetylcholinesterase) [µM]
COc1ccc(NC(=S)Nc2nc(-c3cc4cccc(OC)c4oc3=O)cs2)cc1 [1-(4-(8-Methoxy-2-oxo-2H-chromen-3-yl)thiazol-2-yl)-3-(4-methoxyphenyl)thiourea (f3)]	31.2	41.2
COc1cccc2cc(-c3csc(NC(=S)Nc4ccc(F)cc4)n3)c(=O)oc12 [1-(4-(8-Methoxy-2-oxo-2H-chromen-3-yl)thiazol-2-yl)-3-(4-fluorophenyl)thiourea (f7)]	46.1	23.3
O=C(Nc1ccc(Br)cc1)Nc1nc(-c2cc3cc([N+](=O)[O-])ccc3oc2=O)cs1 [1-(4-Bromophenyl)-3-(4-(6-nitro-2-oxo-2H-chromen-3-yl)thiazol-2-yl)urea (e33)]	92.5	46.2
O=C(Nc1ccc(F)cc1)Nc1nc(-c2cc3cc([N+](=O)[O-])ccc3oc2=O)cs1 [1-(4-Fluorophenyl)-3-(4-(6-nitro-2-oxo-2H-chromen-3-yl)thiazol-2-yl)urea (e31)]	4.93	134
COc1cccc2cc(-c3csc(NC(=O)Nc4ccc([N+](=O)[O-])cc4)n3)c(=O)oc12 [1-(4-(8-Methoxy-2-oxo-2H-chromen-3-yl)thiazol-2-yl)-3-(4-nitrophenyl)urea (e19)]	83.7	46.5
O=C(Nc1ccc(Cl)cc1)Nc1nc(-c2cc3cc([N+](=O)[O-])ccc3oc2=O)cs1 [1-(4-Chlorophenyl)-3-(4-(6-nitro-2-oxo-2H-chromen-3-yl)thiazol-2-yl)urea (e32)]	78.3	129
COc1cccc2cc(-c3csc(NC(=O)Nc4ccc(F)cc4)n3)c(=O)oc12 [1-(4-Fluorophenyl)-3-(4-(8-methoxy-2-oxo-2H-chromen-3-yl)thiazol-2-yl)urea (e22)]	63.3	115
Cc1ccc(NC(=O)Nc2nc(-c3cc4ccccc4oc3=O)cs2)cc1 [1-(p-tolyl)-3-(4-(2-oxo-2H-chromen-3-yl)thiazol-2-yl)urea (e4)]	54.8	81.5
O=C(Nc1ccc(I)cc1)Nc1nc(-c2cc3ccccc3oc2=O)cs1 [1-(4-Iodophenyl)-3-(4-(2-oxo-2H-chromen-3-yl)thiazol-2-yl)urea (e13)]	112	91.2
COc1cccc2cc(-c3csc(NC(=O)Nc4ccc(Br)cc4)n3)c(=O)oc12 [1-(4-Bromophenyl)-3-(4-(8-methoxy-2-oxo-2H-chromen-3-yl)thiazol-2-yl)urea (e25)]	–	69.1
COc1cccc(NC(=O)Nc2nc(-c3cc4cc([N+](=O)[O-])ccc4oc3=O)cs2)c1 [1-(3-Methoxyphenyl)-3-(4-(6-nitro-2-oxo-2H-chromen-3-yl)thiazol-2-yl)urea (e27)]	77.5	38.7
COc1cccc2cc(-c3csc(NC(=O)Nc4cccc([N+](=O)[O-])c4)n3)c(=O)oc12 [1-(4-(8-Methoxy-2-oxo-2H-chromen-3-yl)thiazol-2-yl)-3-(3-nitrophenyl)urea (e18)]	78.4	90
O=C(Nc1ccccc1)Nc1nc(-c2cc3cc([N+](=O)[O-])ccc3oc2=O)cs1 [1-(4-(6-Nitro-2-oxo-2H-chromen-3-yl)thiazol-2-yl)-3-phenylurea (e30)]	84.5	103
COc1cccc2cc(-c3csc(NC(=O)Nc4ccc(I)cc4)n3)c(=O)oc12 [1-(4-Iodophenyl)-3-(4-(8-methoxy-2-oxo-2H-chromen-3-yl)thiazol-2-yl)urea (e26)]	159	61.3
COc1cccc2cc(-c3csc(NC(=O)Nc4cccc(F)c4)n3)c(=O)oc12 [1-(3-Fluorophenyl)-3-(4-(8-methoxy-2-oxo-2H-chromen-3-yl)thiazol-2-yl)urea (e21)]	110	67
O=C(Nc1ccc(I)cc1)Nc1nc(-c2cc3cc([N+](=O)[O-])ccc3oc2=O)cs1 [1-(4-Iodophenyl)-3-(4-(6-nitro-2-oxo-2H-chromen-3-yl)thiazol-2-yl)urea (e34)]	97.5	26.7
COc1ccc(NC(=O)Nc2nc(-c3cc4cc([N+](=O)[O-])ccc4oc3=O)cs2)cc1 [1-(4-Methoxyphenyl)-3-(4-(6-nitro-2-oxo-2H-chromen-3-yl)thiazol-2-yl)urea (e28)]	118	> 200
Cc1ccc(NC(=O)Nc2nc(-c3cc4cc([N+](=O)[O-])ccc4oc3=O)cs2)cc1 [1-(4-(6-Nitro-2-oxo-2H-chromen-3-yl)thiazol-2-yl)-3-(ptolyl)urea (e29)]	195	93.9
COc1cccc2cc(-c3csc(NC(=O)Nc4ccccc4F)n3)c(=O)oc12 [1-(2-Fluorophenyl)-3-(4-(8-methoxy-2-oxo-2H-chromen-3-yl)thiazol-2-yl)urea (e20)]	79.6	66.2
O=C(Nc1ccc(F)cc1)Nc1nc(-c2cc3ccccc3oc2=O)cs1 [1-(4-Fluorophenyl)-3-(4-(2-oxo-2H-chromen-3-yl)thiazol-2-yl)urea (e9)]	84.9	101
COc1cccc2cc(-c3csc(NC(=O)Nc4ccc(C)cc4)n3)c(=O)oc12 [1-(4-(8-Methoxy-2-oxo-2H-chromen-3-yl)thiazol-2-yl)-3-(ptolyl)urea (e16)]	95.6	82.1
O=C(Nc1ccccc1)Nc1nc(-c2cc3ccccc3oc2=O)cs1 [1-Phenyl-3-(4-(2-oxo-2H-chromen-3-yl)thiazol-2-yl)urea (e5)]	74.6	73.2
COc1cccc2cc(-c3csc(NC(=S)Nc4ccccc4)n3)c(=O)oc12 [1-(4-(8-Methoxy-2-oxo-2H-chromen-3-yl)thiazol-2-yl)-3-phenylthiourea (f5)]	21.8	46
O=c1oc2ccccc2cc1-c1csc(NC(=S)Nc2ccc(Cl)cc2)n1 [1-(4-Chlorophenyl)-3-(4-(2-oxo-2H-chromen-3-yl)thiazol-2-yl)thiourea (f2)]	24.3	7.63
COc1cccc2cc(-c3csc(NC(=S)Nc4ccc(C)cc4)n3)c(=O)oc12 [1-(4-(8-Methoxy-2-oxo-2H-chromen-3-yl)thiazol-2-yl)-3-(ptolyl)thiourea (f4)]	36.5	51.9
COc1cccc2cc(-c3csc(NC(=S)Nc4ccc(Cl)cc4)n3)c(=O)oc12 [1-(4-(8-Methoxy-2-oxo-2H-chromen-3-yl)thiazol-2-yl)-3-(4-chlorophenyl)thiourea (f8)]	12.1	4.58
COc1cccc2cc(-c3csc(NC(=S)Nc4cccc(F)c4)n3)c(=O)oc12 [1-(4-(8-Methoxy-2-oxo-2H-chromen-3-yl)thiazol-2-yl)-3-(3-fluorophenyl)thiourea (f6)]	18	18.4
O=C(Nc1nc(-c2cc3ccccc3oc2=O)cs1)Nc1ccccc1F [1-(2-Flurophenyl)-3-(4-(2-oxo-2H-chromen-3-yl)thiazol-2-yl)urea (e7)]	34.5	31.5
O=c1oc2ccccc2cc1-c1csc(NC(=S)Nc2cccc(F)c2)n1 [1-(3-Fluorophenyl)-3-(4-(2-oxo-2H-chromen-3-yl)thiazol-2-yl)thiourea (f1)]	20.8	16.4
COc1cccc(NC(=O)Nc2nc(-c3cc4ccccc4oc3=O)cs2)c1 [1-(3-Methoxyphenyl)-3-(4-(2-oxo-2H-chromen-3-yl)thiazol-2-yl)urea (e2)]	75	52.8
